The supplement of paper PMC4862054

Experiments:
Conditions in all cases: incubation time: 72 h
MCF-10A [1] = test: normalised response (% of control), CellTox Green; higher = less cell death (100 = DMSO, 0 = benzethonium chloride kill control)
Procedure, shortened: (§1)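 A 20 µl suspension of breast cancer cells was seeded into each well of 384-well plates containing compound at 5 concentrations in 10-fold steps over a compound-specific 10,000-fold range. After 72 h incubation, CellTox Green fluorescence (485/520 nm) was read first, and CellTiter-Glo luminescence was read after 10 min at room temperature. Each plate was normalised against 0.1 % DMSO (100) and a positive kill control (0), and each value is the normalised signal at one concentration.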

CAL-51 [2] = test: as above
Procedure, shortened: as §1

HCC1937 [3] = test: as above
Procedure, shortened: as §1

BT-474 [4] = test: as above
Procedure, shortened: as §1

MDA-MB-453 [5] = test: as above
Procedure, shortened: as §1

DU-4475 [6] = test: as above
Procedure, shortened: as §1

HCC1599 [7] = test: as above
Procedure, shortened: as §1

MDA-MB-468 [8] = test: as above
Procedure, shortened: as §1

HCC1143 [9] = test: as above
Procedure, shortened: as §1

Hs578T [10] = test: as above
Procedure, shortened: as §1

MFM-223 [11] = test: as above
Procedure, shortened: as §1

CAL-120 [12] = test: as above
Procedure, shortened: as §1

MDA-MB-231 [13] = test: as above
Procedure, shortened: as §1

BT-549 [14] = test: as above
Procedure, shortened: as §1

MDA-MB-436 [15] = test: as above
Procedure, shortened: as §1

HDQ-P1 [16] = test: as above
Procedure, shortened: as §1

MCF-10A [17] = test: normalised response (% of control), CellTiter-Glo; higher = more viable cells (100 = DMSO, 0 = benzethonium chloride kill control)
Protocol: (§2)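 DSRT, 72 h incubation, CellTox Green / CellTiter-Glo readout. Signal is normalised to DMSO and benzethonium chloride controls. Value is the normalised response at dose 3.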

CAL-51 [18] = test: as above
Protocol: as §2

HCC1937 [19] = test: as above
Protocol: as §2

BT-474 [20] = test: as above
Protocol: as §2

MDA-MB-453 [21] = test: as above
Protocol: as §2

DU-4475 [22] = test: as above
Protocol: as §2

CAL-85-1 [23] = test: as above
Protocol: as §2

CAL-148 [24] = test: as above
Protocol: as §2

HCC1599 [25] = test: as above
Protocol: as §2

MDA-MB-468 [26] = test: as above
Protocol: as §2

HCC1143 [27] = test: as above
Protocol: as §2

Hs578T [28] = test: as above
Protocol: as §2

MFM-223 [29] = test: as above
Protocol: as §2

CAL-120 [30] = test: as above
Protocol: as §2

MDA-MB-231 [31] = test: as above
Protocol: as §2

BT-549 [32] = test: as above
Protocol: as §2

MDA-MB-436 [33] = test: as above
Protocol: as §2

SK-BR-3 = test: as above
Protocol: as §2

HDQ-P1 [34] = test: as above
Protocol: as §2

CAL-85-1 [35] = test: normalised response (% of control), CellTox Green; higher = less cell death (100 = DMSO, 0 = benzethonium chloride kill control)
Procedure, shortened: as §1

CAL-148 [36] = test: as above
Procedure, shortened: as §1

SMILES | normalised response (MCF-10A [1]) | normalised response (CAL-51 [2]) | normalised response (HCC1937 [3]) | normalised response (BT-474 [4]) | normalised response (MDA-MB-453 [5]) | normalised response (DU-4475 [6]) | normalised response (HCC1599 [7]) | normalised response (MDA-MB-468 [8]) | normalised response (HCC1143 [9]) | normalised response (Hs578T [10]) | normalised response (MFM-223 [11]) | normalised response (CAL-120 [12]) | normalised response (MDA-MB-231 [13]) | normalised response (BT-549 [14]) | normalised response (MDA-MB-436 [15]) | normalised response (HDQ-P1 [16]) | normalised response (MCF-10A [17]) | normalised response (CAL-51 [18]) | normalised response (HCC1937 [19]) | normalised response (BT-474 [20]) | normalised response (MDA-MB-453 [21]) | normalised response (DU-4475 [22]) | normalised response (CAL-85-1 [23]) | normalised response (CAL-148 [24]) | normalised response (HCC1599 [25]) | normalised response (MDA-MB-468 [26]) | normalised response (HCC1143 [27]) | normalised response (Hs578T [28]) | normalised response (MFM-223 [29]) | normalised response (CAL-120 [30]) | normalised response (MDA-MB-231 [31]) | normalised response (BT-549 [32]) | normalised response (MDA-MB-436 [33]) | normalised response (SK-BR-3) | normalised response (HDQ-P1 [34]) | normalised response (CAL-85-1 [35]) | normalised response (CAL-148 [36])
CN[C@@H](C)C(=O)N[C@H]1CN(C(=O)CC(C)C)CC[C@H]2CC[C@@H](C(=O)NC(c3ccccc3)c3ccccc3)N2C1=O [AT-406] (100 nM) | 101% | 96.3% | 95.2% | 94.9% | 102% | 104% | 101% | 114% | 70.4% | 97.2% | 104% | 83% | 35.2% | 68.8% | 76.2% | 86.4% | 111% | 109% | 103% | 54% | 89.8% | 102% | 86.6% | 102% | 79.1% | 103% | 103% | 100% | 102% | 92.5% | 63.9% | 47.4% | 105% | 99.9% | 95.9% |  | 
CNC(=O)c1ccccc1Sc1ccc2c(/C=C/c3ccccn3)n[nH]c2c1 [Axitinib] (100 nM) | 98.7% | 107% | 102% | 102% | 110% | 104% | 113% | 132% | 105% | 111% | 96% | 99.2% | 105% | 113% |  | 116% | 100% | 81.6% | 97.8% | 104% | 110% | 111% | 109% | 112% | 101% | 93.8% | 102% | 98.5% | 90.5% | 104% | 111% | 107% | 102% | 103% | 102% | 104% | 108%
CC(O)(CS(=O)(=O)c1ccc(F)cc1)C(=O)Nc1ccc(C#N)c(C(F)(F)F)c1 (configuration not stated) [Bicalutamide] (100 nM) | 85.1% | 98.3% | 106% | 102% | 108% | 100% | 116% | 131% | 107% | 90.6% | 89.8% | 99.5% | 110% | 85% | 108% | 115% | 106% | 80.7% | 100% | 108% | 114% | 105% | 98.9% | 110% | 103% | 105% | 103% | 96.7% | 107% | 105% | 117% | 102% | 107% | 113% | 100% | 95.9% | 102%
Cc1nc(C(=O)NCC(=O)O)c(O)c2ccc(Oc3ccccc3)cc12 [FG-4592] (100 nM) | 101% | 102% | 79.8% | 98.2% | 103% | 105% | 90.1% | 114% | 109% | 94.9% | 92.8% | 102% | 112% | 105% | 97% | 106% | 115% | 97.4% | 98% | 101% | 101% | 103% | 104% | 108% | 112% | 97.1% | 106% | 105% | 106% | 102% | 111% | 106% | 98.6% | 112% | 98.3% | 103% | 95.8%
CC(C)(C)NC(=O)[C@H]1CC[C@H]2[C@@H]3CC[C@H]4NC(=O)C=C[C@]4(C)[C@H]3CC[C@]12C [Finasteride] (100 nM) | 95.4% | 101% | 99.7% | 99% | 103% | 102% | 104% | 98.8% | 93.1% | 107% | 85.2% | 100% | 101% | 102% | 94.8% | 83.5% | 110% | 87.7% | 95.7% | 99.2% | 109% | 104% | 98.5% | 108% | 97.8% | 94.9% | 98.9% | 105% | 104% | 114% | 104% | 100% | 107% | 101% | 96.6% | 100% | 57.3%
CC(C)C[C@H](NC(=O)[C@@H](COC(C)(C)C)NC(=O)[C@H](Cc1ccc(O)cc1)NC(=O)[C@H](CO)NC(=O)[C@H](Cc1c[nH]c2ccccc12)NC(=O)[C@H](Cc1cnc[nH]1)NC(=O)[C@@H]1CCC(=O)N1)C(=O)N[C@@H](CCCNC(=N)N)C(=O)N1CCC[C@H]1C(=O)NNC(N)=O [Goserelin] (100 nM) | 98.9% | 60.7% | 89.5% | 101% | 105% | 97.8% | 86.3% | 129% | 55.7% | 78.9% | 99.1% | 96.2% | 89.7% | 108% | 89.7% | 108% | 94% | 71% | 95.8% | 99.2% | 101% | 97.4% | 97.3% | 93.8% | 94.2% | 102% | 98.7% | 97.1% | 94.9% | 103% | 99% | 103% | 101% | 92.7% | 99.9% | 99.8% | 87.4%
O=C(O)CNC(=O)c1c(O)c2ccccc2n(Cc2ccccc2)c1=O [IOX-2] (500 nM) | 95.2% | 73.4% | 95.6% | 103% | 104% | 111% | 99.3% | 115% | 83.3% | 99.3% | 101% | 97.7% | 110% | 97.3% | 98.3% | 100% | 104% | 61.5% | 97.2% | 99.2% | 105% | 101% | 99% | 92.9% | 98.5% | 90.4% | 98.4% | 99.4% | 97.1% | 103% | 100% | 94.7% | 94.4% | 96.3% | 102% | 112% | 73.2%
CC(=O)[C@]1(O)Cc2c(O)c3c(c(O)c2[C@@H](O[C@H]2C[C@H](N)[C@H](O)[C@H](C)O2)C1)C(=O)c1ccccc1C3=O [Idarubicin] (10 nM) |  | 79.8% | 55.8% | 99.2% | 104% | 100% | 113% | 118% | 114% | 114% | 97.6% | 97.7% | 106% | 83.3% | 96% | 105% | 100% | 73.7% | 99.2% | 98.7% | 110% | 96% | 105% | 102% | 118% | 92.9% | 109% | 94.5% | 107% | 106% | 109% | 89.7% | 95.9% | 105% | 101% | 97.7% | 93%
